# Results reported in patent US20090258069A1, “Delivery of LFA-1 antagonists to the gastrointestinal system” (priority 2008, published 2009).
# System: Chinese hamster ovary (CHO) cells
# Assay: In vitro chromosomal aberration assay in CHO cells
# Type: cell-based
# Conditions: with and without metabolic activation, except single toxic dose 3500 μg/mL, 3-hour
# Source text: The biological relevance of this response is equivocal due to cytotoxicity.
compound,measurement,value
CS(=O)(=O)c1cccc(C[C@H](NC(=O)c2c(Cl)cc3c(c2Cl)CCN(C(=O)c2ccc4ccoc4c2)C3)C(=O)O)c1 [Compound 12],structural chromosomal aberrations in CHO cells,negative
